# According to US9371295B2, “Compounds for use in the treatment of disorders that are ameliorated by inhibition of HDAC” (IRBM—Science Park S.p.A., priority 2012, dated 2016):
# pEC50, pIC50: −log10 of the molar value.
# What was measured:
# [1] = biological target: T1, HDAC1 (Homo sapiens, UniProt Q13547); experiment: HDAC1 assay (Fluor-de-Lys fluorescent deacetylase assay); assay type: biochemical; details: read-out: hHDAC IC50
# T1 construct: made in house
# Protocol: The HDAC1 assay is used to quantify the histone deacetylase (HDAC) activity. The assay is performed in 384 well microtiter plates by pre-incubating serial dilutions of the compounds with a fixed concentration of HeLa nuclear extract or purified HDAC1 and then adding an acetylated lysine-containing substrate/developer that fluoresces upon deacetylation.
# Reagents of the HDAC Fluorescent Activity Assay are purchased from BioMol Research Laboratories (Plymouth Meeting, Pa.) and feature the Fluor-de-Lys™ Substrate/Developer System.
# TSA Stock: TSA is provided as a 10 mM stock solution in 100% dimethylsulfoxide (DMSO). […] The final concentration in the assay is 20 uM.
# 3 uM [final] TSA to this solution increases its ability to stop the reaction.
# HDAC1 Working Solution: The HDAC1 enzyme is diluted in assay buffer prior to each use from a fresh aliquot of enzyme. The final concentration in the assay is 1-2 nM.
# Compounds: Test compounds are directly transferred from a 100% DMSO solution into assay plates by spotting nanoliters of solutions by an acoustic dispenser (ATS-100, EDC biosystems, US).
# HeLa cells transiently transfected with pCDNA3-HDAC1-FLAG are grown to 80% confluence on 10 cm culture dishes in DMEM, 10% Fetal bovine serum supplemented with antibiotics and glutamine. Cells are washed with 10 ml cold PBS and scraped into 2 ml of PBS. Cells are centrifuged for 5 minutes at 800×g at 4° C., washed with 30 ml PBS and resuspended in 10 ml PBS, counted, re-centrifuged and frozen at −80° C.
# The frozen cell pellet is re-suspended in 1 ml of hypotonic lysis buffer (LB: 20 mM Hepes pH7.9, 0.25 mM EDTA, 10% glycerol) containing COMPLETE protease inhibitor and incubated on ice for 15 minutes, followed by homogenization on a 2-ml DounceB homogenizer (25 strokes). 150 mM KCl and 0.5% NP-40 are added to the homogenate and the solution is sonicated twice for 30 seconds (output5/6, duty cycle 90) and incubated for 1 hour at 4° C. After a 30 minutes centrifugation at 12000 rpm and 4° C. the supernatant (soluble extract) is collected and protein concentration is determined using the BIORAD assay.
# Anti-FLAG M2 affinity resin (Sigma) is washed three times with TBS and twice with LB. 10 μl of the LB-washed resin/mg of protein (2-3 ug of Flagged-HDAC1) are added to the soluble extract (1 mL) and incubated overnight at 4° C. with gentle mixing. The resin is then collected by centrifugation, washed once with LB, twice with LB+0.1% NP40 and twice with elution buffer (50 mM Hepes pH 7.4, 5% glycerol, 100 mM KCl, 0.01% Triton X-100).
# The concentration of purified HDAC is determined by Western blot analysis.
# [2] = system: human γ-globin promoter (EGFP reporter) in K562 cells; experiment: HbF activation assay on K562 (EGFP/RFP reporter model system for screening of inducers of fetal hemoglobin); assay type: cell-based; details: 60 hours
# Description: In order to test several compounds, a model system was produced based on previous findings present in the literature. The K562 erythroid-like cell lines, isolated and characterized by Lozzio & Lozzio (Blood, 45(3), pp 321-334) from a patient with chronic myelogenous leukemia in blast crisis, have been extensively employed as a useful in vitro model to study the molecular mechanism(s) regulating the expression of embryonic and fetal human globin genes, as well as for screening of new differentiation-inducing compounds. A stable cell line where reporter genes encoding green EGFP and far-red fluorescent protein red-FP are placed under the control of the human γ-globin or β-globin promoters respectively was used (see Vadolas et al, Hum. Mol. Genet. 2004, 13, 2, 223-233 for details). The modified 3-cluster also contains the upstream regulatory region called LCR. This cell line grows in suspension at 37° C. and 5% CO2 in humidified atmosphere in the following medium: DMEM, 10% foetal bovine serum, glutamine and antibiotics (penicillin and streptomycin);
# The assay procedures is as follows: • Single concentration compounds or serially diluted samples are transferred to an empty assay plates by a spotter (ATS-100, EDC Biosystems, USA) in order to have a final concentration of DMSO of 0.25% in 50 μL of cell culture. Source plats contains compounds dissolved in 100% DMSO • Black, transparent bottom, 384 wells, tissue culture treated plates are used as assay plates. • Assay plates containing spotted compounds are filled with a suspension of cell in the described assay medium. The final cell concentration is of 1000 cells per well. • Cells are incubated in humidified atmosphere, 37° C.-5% CO2, for 60 hours • Cell nuclei are stained by adding 10 ul (6 μM; 1 μM final) Hoechst 33342 (Life Technologies, USA) • The cell associated intensity is read by a plate based cytometer (ACUMEN explorer, TTP Labtech, UK) • The nuclei count is used to assess the cell proliferation/death and to normalize the total EGFP/RFP intensity. HbF Activation Assay in Human Cell Line K562
# The compounds of the invention were tested in the HbF activation assay on K562, as model system for screening of potential inducers of fetal hemoglobin.
# [3] = system: HDAC in Hela cells; experiment: HDAC Hela Cell Based assay
# T1 sequence (Q13547 whole entry): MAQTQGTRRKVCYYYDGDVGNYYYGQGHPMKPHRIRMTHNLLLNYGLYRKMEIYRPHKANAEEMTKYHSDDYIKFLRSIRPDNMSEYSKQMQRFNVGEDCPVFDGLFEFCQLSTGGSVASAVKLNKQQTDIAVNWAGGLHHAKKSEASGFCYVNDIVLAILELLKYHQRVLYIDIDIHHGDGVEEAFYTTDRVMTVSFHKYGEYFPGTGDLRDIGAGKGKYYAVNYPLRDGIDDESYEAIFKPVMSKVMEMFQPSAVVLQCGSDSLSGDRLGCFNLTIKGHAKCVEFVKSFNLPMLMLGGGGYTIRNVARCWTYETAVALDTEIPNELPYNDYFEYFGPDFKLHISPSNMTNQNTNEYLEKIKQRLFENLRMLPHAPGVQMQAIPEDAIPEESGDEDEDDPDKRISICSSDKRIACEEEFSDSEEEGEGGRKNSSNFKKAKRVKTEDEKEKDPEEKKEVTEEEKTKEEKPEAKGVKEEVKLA
pIC50 [1],pEC50 [2],pIC50 [3],SMILES
> 7.00,< 6.00,< 6.00,"CCC(=O)CCCCC[C@H](NC(=O)c1cncs1)c1ncc(-c2ccccc2)o1 [Compound 6, (S)-N-(7-oxo-1-(5-phenyloxazol-2-yl)nonyl)thiazole-5-carboxamide]"
> 7.00,6.00 to 7.00,6.00 to 7.00,"CCC(=O)CCCCC[C@H](NC(=O)c1ccns1)c1ncc(-c2cc3ccccc3nc2OC)o1 [Compound 100, (S)-N-(1-(5-(2-methoxyquinolin-3-yl)oxazol-2-yl)-7-oxononyl)isothiazole-5-carboxamide]"
> 7.00,< 6.00,6.00 to 7.00,"CCC(=O)CCCCC[C@H](NC(=O)C1CNC1)c1ncc(-c2cc3ccccc3nc2OC)o1 [Compound 57, (S)-N-(1-(5-(2-methoxyquinolin-3-yl)oxazol-2-yl)-7-oxononyl)azetidine-3-carboxamide]"
> 7.00,< 6.00,6.00 to 7.00,"CCC(=O)CCCCC[C@H](NC(=O)C1CN(C)C1)c1nnc(-c2cc3ccccc3n(C)c2=O)o1 [Compound 71, (S)-1-methyl-N-(1-(5-(1-methyl-2-oxo-1,2-dihydroquinolin-3-yl)-1,3,4-oxadiazol-2-yl)-7-oxononyl)azetidine-3-carboxamide]"
> 7.00,6.00 to 7.00,> 7.00,"CCC(=O)CCCCC[C@H](NC(=O)CCn1c(CC)nc2ccccc21)c1ncc(-c2cc3ccccc3nc2OC)o1 [Compound 29, (S)-3-(2-ethyl-1H-benzo[d]imidazol-1-yl)-N-(1-(5-(2-methoxyquinolin-3-yl)oxazol-2-yl)-7-oxononyl)propanamide]"
> 7.00,< 6.00,6.00 to 7.00,"CCC(=O)CCCCC[C@H](NC(=O)[C@@H]1CC(F)(F)CN1C)c1ncc(-c2cc3ccccc3nc2OC)o1 [Compound 58, (S)-4,4-difluoro-N-((S)-1-(5-(2-methoxyquinolin-3-yl)oxazol-2-yl)-7-oxononyl)-1-methylpyrrolidine-2-carboxamide]"
> 7.00,6.00 to 7.00,6.00 to 7.00,"CCC(=O)CCCCC[C@H](NC(=O)c1ccnn1C)c1ncc(-c2cc3ccccc3nc2OC)o1 [Compound 87, (S)-N-(1-(5-(2-methoxyquinolin-3-yl)oxazol-2-yl)-7-oxononyl)-1-methyl-1H-pyrazole-5-carboxamide]"
6.00 to 7.00,< 6.00,< 6.00,"CCC(=O)CCCCC[C@H](NC(=O)CCn1c(CC)nc2ccccc21)c1ncc(-c2ccccc2)o1 [Compound 26, (S)-3-(2-ethyl-1H-benzo[d]imidazol-1-yl)-N-(7-oxo-1-(5-phenyloxazol-2-yl)nonyl)propanamide]"
> 7.00,< 6.00,6.00 to 7.00,"CCC(=O)CCCCC[C@H](NC(=O)C1(F)CCN(C)CC1)c1ncc(-c2cc3ccccc3nc2OC)o1 [Compound 68, (S)-4-fluoro-N-(1-(5-(2-methoxyquinolin-3-yl)oxazol-2-yl)-7-oxononyl)-1-methylpiperidine-4-carboxamide]"
> 7.00,< 6.00,6.00 to 7.00,"CCC(=O)CCCCC[C@H](NC(=O)C1CN(C)C1)c1ncc(-c2ccc(-c3ccn[nH]3)cc2)o1 [Compound 53, (S)-N-(1-(5-(4-(1H-pyrazol-5-yl)phenyl)oxazol-2-yl)-7-oxononyl)-1-methylazetidine-3-carboxamide]"
> 7.00,< 6.00,6.00 to 7.00,"CCC(=O)CCCCC[C@H](NC(=O)c1sc(C)nc1C)c1ncc(-c2cc3ccccc3nc2OC)o1 [Compound 83, (S)-N-(1-(5-(2-methoxyquinolin-3-yl)oxazol-2-yl)-7-oxononyl)-2,4-dimethylthiazole-5-carboxamide]"
> 7.00,6.00 to 7.00,6.00 to 7.00,"CCC(=O)CCCCC[C@H](NC(=O)C1CCN(C)C1)c1ncc(-c2cc3ccccc3nc2OC)o1 (stereo partly drawn) [Compound 34, N-((S)-1-(5-(2-methoxyquinolin-3-yl)oxazol-2-yl)-7-oxononyl)-1-methylpyrrolidine-3-carboxamide]"
> 7.00,< 6.00,6.00 to 7.00,"CCC(=O)CCCCC[C@H](NC(=O)Cc1nccs1)c1ncc(-c2cc3ccccc3nc2OC)o1 [Compound 76, (S)-N-(1-(5-(2-methoxyquinolin-3-yl)oxazol-2-yl)-7-oxononyl)-2-(thiazol-2-yl)acetamide]"
> 7.00,< 6.00,< 6.00,"CCC(=O)CCCCC[C@H](NC(=O)C1CCN(C)C1)c1ncc(-c2ccccc2)o1 (stereo partly drawn) [Compound 8, 1-methyl-N-((S)-7-oxo-1-(5-phenyloxazol-2-yl)nonyl)pyrrolidine-3-carboxamide]"
> 7.00,6.00 to 7.00,6.00 to 7.00,"CCC(=O)CCCCC[C@H](NC(=O)CCn1c(CC)nc2ccccc21)c1nnc(-c2cc3ccccc3nc2OC)o1 [Compound 50, (S)-3-(2-ethyl-1H-benzo[d]imidazol-1-yl)-N-(1-(5-(2-methoxyquinolin-3-yl)-1,3,4-oxadiazol-2-yl)-7-oxononyl)propanamide]"
> 7.00,< 6.00,6.00 to 7.00,"CCC(=O)CCCCC[C@H](NC(=O)Cc1cccnc1)c1ncc(-c2cc3ccccc3nc2OC)o1 [Compound 74, (S)-N-(1-(5-(2-methoxyquinolin-3-yl)oxazol-2-yl)-7-oxononyl)-2-(pyridin-3-yl)acetamide]"
> 7.00,< 6.00,6.00 to 7.00,"CCC(=O)CCCCC[C@H](NC(=O)C1CCN1C)c1ncc(-c2cc3ccccc3nc2OC)o1 (stereo partly drawn) [Compound 85, N-((S)-1-(5-(2-methoxyquinolin-3-yl)oxazol-2-yl)-7-oxononyl)-1-methylazetidine-2-carboxamide]"
> 7.00,< 6.00,6.00 to 7.00,"CCC(=O)CCCCC[C@H](NC(=O)C(C)n1nc(C)cc1C)c1ncc(-c2cc3ccccc3nc2OC)o1 (stereo partly drawn) [Compound 95, 2-(3,5-dimethyl-1H-pyrazol-1-yl)-N-((S)-1-(5-(2-methoxyquinolin-3-yl)oxazol-2-yl)-7-oxononyl)propanamide]"
–,< 6.00,6.00 to 7.00,"CCC(=O)CCCCC[C@H](NC(=O)c1cncs1)c1nnc(-c2cc3ccccc3nc2OC)o1 [Compound 49, (S)-N-(1-(5-(2-methoxyquinolin-3-yl)-1,3,4-oxadiazol-2-yl)-7-oxononyl)thiazole-5-carboxamide]"

SMILES,pIC50 [1],pEC50 [2],pIC50 [3]
"CCC(=O)CCCCC[C@H](NC(=O)C(C)(C)N(C)C)c1ncc(-c2cc3ccccc3nc2OC)o1 [Compound 35, (S)-2-(dimethylamino)-N-(1-(5-(2-methoxyquinolin-3-yl)oxazol-2-yl)-7-oxononyl)-2-methylpropanamide]",> 7.00,6.00 to 7.00,> 7.00
